Reference: the supplement of paper PMC10627819

Columns and labels:
S. pneumoniae D39V = experiment: fitness (endpoint OD595 vs no drug) (fraction); higher = more growth
Method in brief: (§1)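 With the first reading as background, OD595 was measured every 30 min for 14 h in 384-well plates kept at 37 °C and inoculated at OD595 0.01. TSB, LB Lennox or CY was the medium. Fitness is the optical density at the transition into stationary phase divided by the robust mean of no-drug control wells, with a cap of 1.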

S. aureus Newman = experiment: as above
Method in brief: as §1
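Note: OD595 on entry to stationary phase over no-drug wells; at most 1.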

O=C(O)[C@H]1/C(=C/CO)O[C@@H]2CC(=O)N21 [Clavulanic acid] + CO[C@@]12[C@H](COC(N)=O)C3=C(C(=O)C(C)=C(N)C3=O)N1C[C@@H]1N[C@@H]12 [Mitomycin C]
fitness, S. pneumoniae D39V
Conditions	partner 0.001075 µg/mL	partner 0.00215 µg/mL	partner 0.004 µg/mL	partner 0.0043 µg/mL	partner 0.008 µg/mL
first compound 0.5 µg/mL	0.951	0.885	0.642	0.772	0.324
first compound 1 µg/mL	0.896	0.873	0.586	0.766	0.369
first compound 2 µg/mL	0.838	0.791	0.385	0.696	0.201

fitness, S. aureus Newman, one replicate
Conditions	first compound 0.03125 µg/mL	first compound 0.0625 µg/mL	first compound 0.125 µg/mL
partner 0.0156 µg/mL	0.757	0.748	0.721
partner 0.0312 µg/mL	0.549	0.568	0.601
partner 0.0625 µg/mL	0.48	0.495	0.51

CC[C@H]1OC(=O)[C@H](C)[C@@H](O[C@H]2C[C@@](C)(OC)[C@@H](O)[C@H](C)O2)[C@H](C)[C@@H](O[C@@H]2O[C@H](C)C[C@H](N(C)C)[C@H]2O)[C@](C)(O)C[C@@H](C)CN(C)[C@H](C)[C@@H](O)[C@]1(C)O [Azithromycin] + CC1(C)S[C@@H]2[C@H](NC(=O)Cc3ccccc3)C(=O)N2[C@H]1C(=O)O [Penicillin G]
fitness, S. aureus Newman
Conditions	first compound 0.125 µg/mL	first compound 0.25 µg/mL	first compound 0.5 µg/mL
partner 0.0195 µg/mL	0.844	0.729	0.513
partner 0.039 µg/mL	0.822	0.77	0.452
partner 0.078 µg/mL	0.775	0.741	0.411

O=C(O)[C@H]1/C(=C/CO)O[C@@H]2CC(=O)N21 [Clavulanic acid] + CCCCCCCCCC(=O)N[C@@H]1[C@H]([C@@H]([C@H](O[C@H]1OC2=C3C=C4C=C2OC5=C(C=C(C=C5)[C@H]([C@H]6C(=O)N[C@@H](C7=C(C(=CC(=C7)O)OC8[C@H]([C@H]([C@@H]([C@H](O8)CO)O)O)O)C9=C(C=CC(=C9)[C@H](C(=O)N6)NC(=O)[C@@H]4NC(=O)[C@@H]1C2=CC(=CC(=C2)OC2=C(C=CC(=C2)[C@H](C(=O)N[C@H](CC2=CC(=C(O3)C=C2)Cl)C(=O)N1)N)O)O)O)C(=O)O)O[C@H]1[C@@H]([C@H]([C@@H]([C@H](O1)CO)O)O)NC(=O)C)Cl)CO)O)O [Teicoplanin]
fitness, S. aureus Newman, one replicate, main component drawn
Conditions	first compound 0.03125 µg/mL	first compound 0.0625 µg/mL	first compound 0.125 µg/mL
partner 0.1562 µg/mL	0.992	0.966	0.916
partner 0.3125 µg/mL	0.924	≥ 1	0.894
partner 0.625 µg/mL	≥ 1	≥ 1	0.967

O=C(O)[C@H]1/C(=C/CO)O[C@@H]2CC(=O)N21 [Clavulanic acid] + CC1(C)S[C@@H]2[C@H](NC(=O)Cc3ccccc3)C(=O)N2[C@H]1C(=O)O [Penicillin G]
fitness, S. aureus Newman, one replicate
Conditions	first compound 0.03125 µg/mL	first compound 0.0625 µg/mL	first compound 0.125 µg/mL
partner 0.0195 µg/mL	0.934	0.859	0.796
partner 0.039 µg/mL	0.851	0.819	0.712
partner 0.078 µg/mL	0.846	0.694	0.613

Cc1onc(-c2ccccc2)c1C(=O)N[C@@H]1C(=O)N2[C@@H]1SC(C)(C)[C@@H]2C(=O)O [Oxacillin] + CC1(C)S[C@@H]2[C@H](NC(=O)Cc3ccccc3)C(=O)N2[C@H]1C(=O)O [Penicillin G]
fitness, S. aureus Newman
Conditions	partner 0.0195 µg/mL	partner 0.039 µg/mL	partner 0.078 µg/mL
first compound 0.0156 µg/mL	0.768	0.748	0.727
first compound 0.0312 µg/mL	0.659	0.688	0.66

O=C(O)[C@H]1/C(=C/CO)O[C@@H]2CC(=O)N21 [Clavulanic acid] + CO/N=C(\C(=O)N[C@@H]1C(=O)N2C(C(=O)[O-])=C(C[N+]3(C)CCCC3)CS[C@H]12)c1csc(N)n1 [Cefepime]
fitness, S. pneumoniae D39V
Conditions	partner 0.007 µg/mL	partner 0.0078 µg/mL	partner 0.014 µg/mL	partner 0.0155 µg/mL	partner 0.028 µg/mL	partner 0.031 µg/mL
first compound 0.5 µg/mL	0.996	0.997	0.997	0.957	0.885	0.501
first compound 1 µg/mL	0.991	0.955	0.988	0.91	0.817	0.456
first compound 2 µg/mL	0.902	0.778	0.904	0.681	0.633	0.199

fitness, S. aureus Newman, one replicate
Conditions	first compound 0.03125 µg/mL	first compound 0.0625 µg/mL	first compound 0.125 µg/mL
partner 0.125 µg/mL	0.965	0.94	0.881
partner 0.25 µg/mL	0.943	0.914	0.884
partner 0.5 µg/mL	0.946	0.871	0.869

CC1=C(C(=O)O)N2C(=O)[C@@H](NC(=O)[C@H](N)c3ccccc3)[C@H]2SC1 [Cephalexin] + CO[C@@]12[C@H](COC(N)=O)C3=C(C(=O)C(C)=C(N)C3=O)N1C[C@@H]1N[C@@H]12 [Mitomycin C]
fitness, S. pneumoniae D39V, one replicate
Conditions	first compound 0.125 µg/mL	first compound 0.25 µg/mL	first compound 0.5 µg/mL
partner 0.002 µg/mL	0.806	0.757	0.732
partner 0.004 µg/mL	0.761	0.723	0.686
partner 0.008 µg/mL	0.607	0.615	0.608

fitness
Conditions	first compound 0.25 µg/mL	first compound 0.5 µg/mL	first compound 1 µg/mL	first compound 2 µg/mL	first compound 4 µg/mL
S. aureus Newman, partner 0.0156 µg/mL	0.804	0.761	0.891	–	–
S. aureus Newman, partner 0.0312 µg/mL	0.732	0.724	0.705	–	–
S. aureus Newman, partner 0.0625 µg/mL	0.614	0.577	0.655	–	–
S. pneumoniae D39V, partner 0.001075 µg/mL	–	–	0.662	0.188	0.0487
S. pneumoniae D39V, partner 0.00215 µg/mL	–	–	0.639	0.146	0.0215
S. pneumoniae D39V, partner 0.0043 µg/mL	–	–	0.604	0.173	0.05

O=C(O)[C@H]1/C(=C/CO)O[C@@H]2CC(=O)N21 [Clavulanic acid] + Cn1nnc(-c2ccc(-c3ccc(N4C[C@H](CO)OC4=O)cc3F)cn2)n1 [Tedizolid]
fitness, S. pneumoniae D39V
Conditions	partner 0.03125 µg/mL	partner 0.0625 µg/mL	partner 0.125 µg/mL	partner 0.25 µg/mL	partner 0.5 µg/mL
first compound 0.5 µg/mL	0.953	0.943	0.693	0.261	0.0809
first compound 1 µg/mL	0.887	0.938	0.673	0.371	0.227
first compound 2 µg/mL	0.855	0.901	0.581	0.262	0.0776

fitness, S. aureus Newman, one replicate
Conditions	first compound 0.03125 µg/mL	first compound 0.0625 µg/mL	first compound 0.125 µg/mL
partner 0.0625 µg/mL	0.827	0.837	0.868
partner 0.125 µg/mL	0.498	0.509	0.523
partner 0.25 µg/mL	0.0634	0.0552	0.0639

CNC(C)C1CCC(N)C(OC2C(N)CC(N)C(OC3OCC(C)(O)C(NC)C3O)C2O)O1 (configuration not stated) [Gentamicin] + CC1(C)S[C@@H]2[C@H](NC(=O)Cc3ccccc3)C(=O)N2[C@H]1C(=O)O [Penicillin G]
fitness, S. aureus Newman, main component drawn
Conditions	first compound 0.375 µg/mL	first compound 0.5 µg/mL	first compound 0.75 µg/mL	first compound 1 µg/mL	first compound 1.5 µg/mL	first compound 2 µg/mL
partner 0.0195 µg/mL	0.836	0.901	0.82	0.937	0.865	0.98
partner 0.039 µg/mL	0.948	0.897	0.914	0.939	0.944	0.96
partner 0.078 µg/mL	0.944	0.842	0.925	0.886	0.918	0.924

CC1=C(C(=O)O)N2C(=O)[C@@H](NC(=O)[C@H](N)c3ccccc3)[C@H]2SC1 [Cephalexin] + CC1(C)S[C@@H]2[C@H](NC(=O)Cc3ccccc3)C(=O)N2[C@H]1C(=O)O [Penicillin G]
fitness, S. aureus Newman
Conditions	first compound 0.25 µg/mL	first compound 0.5 µg/mL	first compound 1 µg/mL
partner 0.0195 µg/mL	0.891	0.785	0.811
partner 0.039 µg/mL	0.927	0.937	0.908
partner 0.078 µg/mL	0.875	0.897	0.944
